Assay results as given in patent US11219625B2, “Inhibitors of N-linked glycosylation and methods using same” (YALE UNIVERSITY, priority 2015, dated 2022).

Legend:
OST [1] = assay: Free and peptide glycans in streptolysin-O permeabilized CHO cells; type: cell-based; conditions: NGI-1 5 μM
Method: Fluorophore assisted carbohydrate electrophoresis (FACE) was performed as previously described (Gao, et al., Glycobiology 2002, 12, 353-360; Gao, et al., J Biol Chem 2005, 280, 17901-17909). Control (Ac-Gln-Tyr-Thr-CONH2) and acceptor (Ac-Asn-Tyr-Thr-CONH2) peptides were used for permeabilized cell experiments. Metabolic labeling of Hela cells, transfection of prosaposin (pSAP) and steroid hormone binding globulin (SHBG) vectors, and knockdown of SIT3A and STT3B to monitor N-linked glycosylation knockdown were performed as described (Shrimal, et al., J Cell Biol 2013, 201, 81-95). Western blot analysis was performed as previously described (Bennett, et al., Transl Oncol 2013, 6, 382-391). […]
The OST is an ER resident multi-subunit complex that cleaves LLOs and transfers the oligosaccharide to a protein encoded N-linked glycosylation consensus sequence (NXT/S). […] Both enzymatic products of the OST, free glycans and protein glycans, were therefore determined with and without NGI-1 treatment using optimized conditions in streptolysin-O permeabilized CHO cells (FIG. 2C). Addition of a control peptide without the N-linked glycosylation consensus sequence (QYT) led to readily detectable levels of free glycans (left panel), while addition of an acceptor peptide containing the consensus sequence (NYT) followed by PNGase treatment led to detection of cleaved peptide glycans (right panel). […]

OST [2] = molecular target: T1, OST (Canis lupus familiaris, UniProt F1PJP5); assay: Cell free OST inhibition, canine pancreas microsomes with in vitro translation of pSAP mRNA; type: biochemical; conditions: FIG. 2D
T1 construct: rabbit reticulocyte lysate translation system supplemented with canine pancreas rough microsomes (cRM); from tissue; host or cells: canine pancreas rough microsomes
T1 sequence (F1PJP5 1-705): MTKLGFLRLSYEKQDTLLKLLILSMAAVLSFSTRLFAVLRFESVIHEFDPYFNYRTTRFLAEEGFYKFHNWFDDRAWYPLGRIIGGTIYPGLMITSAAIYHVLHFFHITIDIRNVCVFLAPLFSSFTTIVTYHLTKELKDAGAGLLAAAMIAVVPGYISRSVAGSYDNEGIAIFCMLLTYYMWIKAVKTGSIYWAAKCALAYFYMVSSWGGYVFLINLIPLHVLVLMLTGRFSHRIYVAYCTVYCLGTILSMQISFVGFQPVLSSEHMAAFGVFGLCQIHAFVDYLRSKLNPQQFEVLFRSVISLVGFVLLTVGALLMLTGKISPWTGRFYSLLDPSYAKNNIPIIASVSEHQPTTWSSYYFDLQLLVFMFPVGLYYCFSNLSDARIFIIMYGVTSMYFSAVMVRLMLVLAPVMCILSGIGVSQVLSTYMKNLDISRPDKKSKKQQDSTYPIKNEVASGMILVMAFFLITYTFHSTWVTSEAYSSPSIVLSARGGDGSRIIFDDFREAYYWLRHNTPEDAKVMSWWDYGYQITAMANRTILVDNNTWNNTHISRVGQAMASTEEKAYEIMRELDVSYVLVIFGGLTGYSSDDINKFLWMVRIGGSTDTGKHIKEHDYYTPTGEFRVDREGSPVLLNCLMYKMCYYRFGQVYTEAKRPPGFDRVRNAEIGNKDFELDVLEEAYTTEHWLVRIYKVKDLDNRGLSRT
Method: FIGS. 2A-2I illustrate the finding that NGI-1 blocks OST function. FIG. 2A illustrates the western blots of glycosylated luciferase (Luc) after treatment with 1 μM tunicmaycin (Tn) and 10 μM NGI-1 in CHO-Lec15 and CHO-Lec35 cells with stable expression of ER-LucT. FIG. 2B is a […] illustrating FACE analysis of lipid linked oligosaccharides (LLOs). FIG. 2C is a series of western blots illustrating the effects of NGI-1 (5 μM) on free oligosaccharides (left panel) and N-linked glycans cleaved from peptides with Peptide-N-Glycosidase F (right panel). Carbohydrate size is indicated with glucose markers (G4-G7). FIG. 2D is a western blot illustrating cell free inhibition of the OST using a rabbit reticulocyte lysate translation system supplemented with canine pancreas rough microsomes (cRM). […] FIGS. 2G-2H: Dose response and quantitation of NGI-1 effect on pSAP (squares) and SHBG glycosylation (circles). […]
The OST is an ER resident multi-subunit complex that cleaves LLOs and transfers the oligosaccharide to a protein encoded N-linked glycosylation consensus sequence (NXT/S). […] Both enzymatic products of the OST, free glycans and protein glycans, were therefore determined with and without NGI-1 treatment using optimized conditions in streptolysin-O permeabilized CHO cells (FIG. 2C). […]

Structure (SMILES): Cc1cnc(NC(=O)c2cc(S(=O)(=O)N(C)C)ccc2N2CCCC2)s1 [NGI-1, 5-(N,N-Dimethylsulfamoyl)-N-(5-methylthiazol-2-yl)-2-(pyrrolidin-1-yl)benzamide]
- production of free glycans and cleaved peptide glycans (OST [1]): substantially reduced the production of both free and cleaved glycans
- inhibition of pSAP N-linked glycosylation, cell free (OST [2]): dose dependent inhibition of pSAP N-linked glycosylation
